Measured values reported in PubChem BioAssay (NCI).
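Protocol summary: plate cells (96-well), add compound at 5 concentrations, incubate 48 h, interpolate endpoints linearly. TGI denotes the concentration required for complete inhibition of growth.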

Experiments:
Experiment in all cases: NCI tumour cell line growth inhibition, 48 h
UACC-257 melanoma = test system: UACC-257 melanoma
SF-295 CNS = test system: SF-295 CNS
HL-60(TB) leukemia = test system: HL-60(TB) leukemia
COLO 205 colon = test system: COLO 205 colon
BT-549 breast = test system: BT-549 breast
IGROV1 ovarian = test system: IGROV1 ovarian
NCI/ADR-RES ovarian = test system: NCI/ADR-RES ovarian
CAKI-1 renal = test system: CAKI-1 renal
HCT-116 colon = test system: HCT-116 colon
NCI-H23 lung = test system: NCI-H23 lung
SF-268 CNS = test system: SF-268 CNS
HOP-92 NSCLC = test system: HOP-92 NSCLC
RPMI-8226 leukemia = test system: RPMI-8226 leukemia
HT29 colon = test system: HT29 colon
SNB-19 CNS = test system: SNB-19 CNS
MCF7 breast = test system: MCF7 breast
T-47D breast = test system: T-47D breast
ACHN renal = test system: ACHN renal
A498 renal = test system: A498 renal
K-562 leukemia = test system: K-562 leukemia
SNB-75 CNS = test system: SNB-75 CNS
U251 CNS = test system: U251 CNS
CCRF-CEM leukemia = test system: CCRF-CEM leukemia
SK-MEL-28 melanoma = test system: SK-MEL-28 melanoma
KM12 colon = test system: KM12 colon
LOX IMVI melanoma = test system: LOX IMVI melanoma
EKVX NSCLC = test system: EKVX NSCLC
RXF 393 renal = test system: RXF 393 renal
MOLT-4 leukemia = test system: MOLT-4 leukemia
HCC-2998 colon = test system: HCC-2998 colon
786-0 renal = test system: 786-0 renal
OVCAR-4 ovarian = test system: OVCAR-4 ovarian
NCI-H226 lung = test system: NCI-H226 lung
M14 melanoma = test system: M14 melanoma
DU-145 prostate = test system: DU-145 prostate
SK-MEL-2 melanoma = test system: SK-MEL-2 melanoma
HCT-15 colon = test system: HCT-15 colon
OVCAR-8 ovarian = test system: OVCAR-8 ovarian
SK-MEL-5 melanoma = test system: SK-MEL-5 melanoma
UACC-62 melanoma = test system: UACC-62 melanoma
SK-OV-3 ovarian = test system: SK-OV-3 ovarian
HS 578T breast = test system: HS 578T breast
MDA-MB-231 breast = test system: MDA-MB-231 breast
HOP-62 NSCLC = test system: HOP-62 NSCLC
SR leukemia = test system: SR leukemia
MDA-MB-435 = test system: MDA-MB-435
SW-620 colon = test system: SW-620 colon
TK-10 renal = test system: TK-10 renal
PC-3 prostate = test system: PC-3 prostate
SF-539 CNS = test system: SF-539 CNS
NCI-H460 lung = test system: NCI-H460 lung
UO-31 renal = test system: UO-31 renal

Measured: TGI

COc1ccc2c(=O)c3ccoc3[nH]c2c1
> 100 µM: UACC-257 melanoma | SF-295 CNS | HL-60(TB) leukemia | COLO 205 colon | BT-549 breast | IGROV1 ovarian | NCI/ADR-RES ovarian | CAKI-1 renal | HCT-116 colon | NCI-H23 lung | SF-268 CNS | HOP-92 NSCLC | RPMI-8226 leukemia | HT29 colon | SNB-19 CNS | MCF7 breast | T-47D breast | ACHN renal | A498 renal | K-562 leukemia | SNB-75 CNS | U251 CNS | CCRF-CEM leukemia | SK-MEL-28 melanoma | KM12 colon | LOX IMVI melanoma | EKVX NSCLC | RXF 393 renal | MOLT-4 leukemia | HCC-2998 colon | 786-0 renal | OVCAR-4 ovarian | NCI-H226 lung | M14 melanoma | DU-145 prostate | SK-MEL-2 melanoma | HCT-15 colon | OVCAR-8 ovarian | SK-MEL-5 melanoma | UACC-62 melanoma | SK-OV-3 ovarian | HS 578T breast | MDA-MB-231 breast | HOP-62 NSCLC | SR leukemia | MDA-MB-435 | SW-620 colon | TK-10 renal | PC-3 prostate | SF-539 CNS | NCI-H460 lung | UO-31 renal
